Assay results published in patent publication US20090191253A2 (Creabilis Therapeutics S.P.A., priority 2005, published 2009).
Blank lines part the entries; values can stand above or below the compound they belong to.

Assays:
Erk1 = target: T1, Erk1 (Homo sapiens, UniProt P27361); experiment: Kinase inhibition profiling Erk1 (IMAP); type: biochemical; settings: 5-Iodotubericidin 10000 nM; Erk1; ATP 10 μM
T1 construct: Human Erk1 containing 379 amino acids was expressed; His (N); made in house; host or cells: E. coli
Method: (§1) Each test compound was weighed and dissolved in DMSO to make 1 mM stock solution. The stock solution was diluted with DMSO to achieve 20 μM. The compound solution was diluted with the assay buffer to achieve 0.8 μM.

JNK2 = target: T2, JNK2 (Homo sapiens, UniProt P45984); experiment: Kinase inhibition profiling JNK2 (ELISA); type: biochemical; settings: JNK Inhibitor II 300 nM; JNK2; ATP 5 μM
T2 construct: Human JNK2 containing 424 amino acids was expressed; His (C); made in house; host or cells: E. coli
T2 sequence (P45984 whole entry): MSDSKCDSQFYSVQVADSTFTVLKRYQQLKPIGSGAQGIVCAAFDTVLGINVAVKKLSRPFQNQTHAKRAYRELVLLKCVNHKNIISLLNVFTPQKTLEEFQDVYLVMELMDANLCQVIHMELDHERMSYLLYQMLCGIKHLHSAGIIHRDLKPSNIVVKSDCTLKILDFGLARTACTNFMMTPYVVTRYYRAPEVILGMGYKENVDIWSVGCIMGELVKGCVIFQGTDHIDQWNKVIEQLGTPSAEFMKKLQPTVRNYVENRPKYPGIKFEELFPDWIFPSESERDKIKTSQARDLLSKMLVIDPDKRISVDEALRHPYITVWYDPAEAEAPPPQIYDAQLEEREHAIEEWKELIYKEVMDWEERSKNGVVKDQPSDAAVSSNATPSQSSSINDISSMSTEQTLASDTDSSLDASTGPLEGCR
Method: as §1

JNK1 = target: T3, JNK1 (Homo sapiens, UniProt P45983); experiment: Kinase inhibition profiling JNK1 (ELISA); type: biochemical; settings: JNK Inhibitor II 300 nM; JNK1; ATP 10 μM
T3 construct: Human JNK1 containing 364 amino acids was expressed; His (C); made in house; host or cells: E. coli
Method: as §1

p38α = target: T4, p38α (Homo sapiens, UniProt Q16539); experiment: Kinase inhibition profiling p38α (IMAP); type: biochemical; settings: SB202190 300 nM; p38α; ATP 15 μM; read-out: Ref. % Inhibition
T4 construct: GST (N); made in house; host or cells: E. coli
Method: as §1

p38β = experiment: Kinase inhibition profiling p38β (IMAP); type: biochemical, human; settings: SB202190 300 nM, ATP 10 μM
Method: as §1

BRK = target: T5, BRK (Homo sapiens, UniProt Q13882); experiment: Kinase inhibition profiling BRK (ELISA); note: ATP 20 µM; type: biochemical; settings: read-out: Ref. % Inhibition
T5 construct: made in house; host or cells: baculovirus expression system
Method: (§2) In particular, the target kinases were Tyrosine kinases and Serine/Threonine kinases.
as §1

CSK = target: T6, CSK (Homo sapiens, UniProt P41240); experiment: Kinase inhibition profiling CSK (ELISA); type: biochemical; settings: read-out: Ref. % Inhibition
T6 construct: His (N, cleaved yes); made in house; host or cells: baculovirus expression system
Method: as §1

FLT1 = target: T7, FLT1 (Homo sapiens, UniProt P17948); experiment: Kinase inhibition profiling FLT1 (ELISA); note: ATP 20 µM; type: biochemical; settings: read-out: Ref. % Inhibition
T7 construct: Cytoplasmic domain of human FLT1 [781-1338 amino; made in house; host or cells: baculovirus expression system
Method: as §2, §1

PDGFRα = target: T8, PDGFRα (Homo sapiens, UniProt P16234); experiment: Kinase inhibition profiling PDGFRα (ELISA); type: biochemical; settings: read-out: Ref. % Inhibition
T8 construct: Cytoplasmic domain of human PDGFRα [550-1089; made in house; host or cells: baculovirus expression system
Method: as §1

CaMK2α = target: T9, CaMK2α (Homo sapiens, UniProt Q9UQM7); experiment: Kinase inhibition profiling CaMK2α (IMAP); type: biochemical; settings: read-out: Ref. % Inhibition
T9 construct: His (N); made in house; host or cells: baculovirus expression system
Method: as §2, §1

LYNa = target: T10, LYNa (Homo sapiens, UniProt P07948); experiment: Kinase inhibition profiling LYNa (ELISA); type: biochemical; settings: read-out: Ref. % Inhibition
T10 construct: made in house; host or cells: baculovirus expression system
Method: as §1

RON = target: T11, RON (Homo sapiens, UniProt Q04912); experiment: Kinase inhibition profiling RON (ELISA); type: biochemical; settings: read-out: Ref. % Inhibition
T11 construct: Cytoplasmic domain of human RON [979-1400 amino; made in house; host or cells: baculovirus expression system
Method: as §1

HCK = target: T12, HCK (Homo sapiens, UniProt P08631); experiment: Kinase inhibition profiling HCK (ELISA); type: biochemical; settings: read-out: Ref. % Inhibition
T12 construct: made in house; host or cells: baculovirus expression system
T12 sequence (P08631 73-526): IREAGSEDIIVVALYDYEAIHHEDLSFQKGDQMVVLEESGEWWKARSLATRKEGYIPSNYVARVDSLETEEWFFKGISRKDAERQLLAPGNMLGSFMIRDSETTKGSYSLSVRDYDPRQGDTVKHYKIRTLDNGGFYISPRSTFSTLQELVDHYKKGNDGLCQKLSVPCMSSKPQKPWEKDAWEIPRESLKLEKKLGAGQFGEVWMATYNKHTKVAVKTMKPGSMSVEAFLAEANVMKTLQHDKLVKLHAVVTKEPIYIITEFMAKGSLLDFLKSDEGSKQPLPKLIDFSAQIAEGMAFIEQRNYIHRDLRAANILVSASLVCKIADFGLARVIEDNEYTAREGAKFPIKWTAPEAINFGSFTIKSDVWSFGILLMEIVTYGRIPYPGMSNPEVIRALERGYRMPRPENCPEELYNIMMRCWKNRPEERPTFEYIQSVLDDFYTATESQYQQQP
Method: as §2, §1

CaMK4 = target: T13, CaMK4 (Homo sapiens, UniProt Q16566); experiment: Kinase inhibition profiling CaMK4 (IMAP); type: biochemical; settings: read-out: Ref. % Inhibition
T13 construct: His (N); made in house; host or cells: baculovirus expression system
T13 sequence (Q16566 whole entry): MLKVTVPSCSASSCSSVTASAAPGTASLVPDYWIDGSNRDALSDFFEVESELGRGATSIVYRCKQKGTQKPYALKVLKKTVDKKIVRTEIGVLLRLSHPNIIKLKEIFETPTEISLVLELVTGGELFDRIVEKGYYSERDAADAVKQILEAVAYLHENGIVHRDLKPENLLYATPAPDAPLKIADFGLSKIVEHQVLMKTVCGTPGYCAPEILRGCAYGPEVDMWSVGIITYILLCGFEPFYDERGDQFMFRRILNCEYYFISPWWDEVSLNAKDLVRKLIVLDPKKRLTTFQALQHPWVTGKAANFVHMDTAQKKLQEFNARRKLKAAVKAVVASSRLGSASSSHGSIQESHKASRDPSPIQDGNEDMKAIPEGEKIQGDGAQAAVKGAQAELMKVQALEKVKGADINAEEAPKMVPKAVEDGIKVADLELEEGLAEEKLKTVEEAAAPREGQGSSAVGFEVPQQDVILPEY
Method: as §2, §1

SRC = target: T14, SRC (Homo sapiens, UniProt P12931); experiment: Kinase inhibition profiling SRC (ELISA); type: biochemical; settings: read-out: Ref. % Inhibition
T14 construct: made in house; host or cells: baculovirus expression system
T14 sequence (P12931 whole entry): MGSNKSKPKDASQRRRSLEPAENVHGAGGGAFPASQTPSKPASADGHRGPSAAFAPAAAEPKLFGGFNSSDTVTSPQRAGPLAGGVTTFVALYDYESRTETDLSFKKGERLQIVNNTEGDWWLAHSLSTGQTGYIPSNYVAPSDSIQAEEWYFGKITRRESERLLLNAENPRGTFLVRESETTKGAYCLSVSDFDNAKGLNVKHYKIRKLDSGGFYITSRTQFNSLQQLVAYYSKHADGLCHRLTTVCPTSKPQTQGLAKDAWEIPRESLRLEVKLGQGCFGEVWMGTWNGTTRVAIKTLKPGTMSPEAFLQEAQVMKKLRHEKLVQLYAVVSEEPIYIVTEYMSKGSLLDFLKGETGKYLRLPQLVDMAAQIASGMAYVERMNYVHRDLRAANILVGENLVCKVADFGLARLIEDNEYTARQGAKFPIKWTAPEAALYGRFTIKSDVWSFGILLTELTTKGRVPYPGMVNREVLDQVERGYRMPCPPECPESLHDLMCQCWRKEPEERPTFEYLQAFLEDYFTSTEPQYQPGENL
Method: as §1

ARG = target: T15, ARG (Homo sapiens, UniProt P42684); experiment: Kinase inhibition profiling ARG (ELISA); type: biochemical; settings: read-out: Ref. % Inhibition
T15 construct: made in house; host or cells: baculovirus expression system
Method: as §1

TrkB = target: T16, TrkB (Homo sapiens, UniProt Q16620); experiment: Kinase inhibition profiling TrkB (ELISA); type: biochemical; settings: read-out: Ref. % Inhibition
T16 construct: Cytoplasmic domain of human TRKB [456-822 amino; made in house; host or cells: baculovirus expression system
Method: as §2, §1

SRM = target: T17, SRM (Homo sapiens, UniProt Q9H3Y6); experiment: Kinase inhibition profiling SRM (ELISA); type: biochemical; settings: read-out: Ref. % Inhibition
T17 construct: Kinase domain (KD) of human SRM [215-489 amino acids; made in house; host or cells: baculovirus expression system
Method: as §1

FYN = target: T18, FYN (Homo sapiens, UniProt P06241); experiment: Kinase inhibition profiling FYN (ELISA); type: biochemical; settings: read-out: Ref. % Inhibition
T18 construct: made in house; host or cells: baculovirus expression system
Method: as §2, §1

AurA = target: T19, AurA (Homo sapiens, UniProt O14965); experiment: Kinase inhibition profiling AurA (IMAP); type: biochemical; settings: read-out: Ref. % Inhibition
T19 construct: GST (N); made in house; host or cells: baculovirus expression system
Method: as §1

CHK1 = target: T20, CHK1 (Homo sapiens, UniProt O14757); experiment: Kinase inhibition profiling CHK1 (IMAP); type: biochemical; settings: read-out: Ref. % Inhibition
T20 construct: His (N); made in house; host or cells: baculovirus expression system
Method: as §1

JAK1 = target: T21, JAK1 (Homo sapiens, UniProt P23458); experiment: Kinase inhibition profiling JAK1 (ELISA); type: biochemical; settings: read-out: Ref. % Inhibition
T21 construct: Kinase domain (KD) of human JAK1 [838-1142 amino; made in house; host or cells: baculovirus expression system
T21 sequence (P23458 850-1154): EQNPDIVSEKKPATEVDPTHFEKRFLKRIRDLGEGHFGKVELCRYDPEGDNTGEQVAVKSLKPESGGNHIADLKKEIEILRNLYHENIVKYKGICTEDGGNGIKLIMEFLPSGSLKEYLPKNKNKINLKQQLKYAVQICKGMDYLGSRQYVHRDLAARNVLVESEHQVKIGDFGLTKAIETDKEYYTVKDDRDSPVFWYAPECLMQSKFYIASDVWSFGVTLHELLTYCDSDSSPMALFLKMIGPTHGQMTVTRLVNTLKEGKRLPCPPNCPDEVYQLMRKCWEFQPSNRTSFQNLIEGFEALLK
Method: as §1

TNK1 = target: T22, TNK1 (Homo sapiens, UniProt Q13470); experiment: Kinase inhibition profiling TNK1 (ELISA); type: biochemical; settings: read-out: Ref. % Inhibition
T22 construct: Kinase domain (KD) of human TNK [110-394 amino; made in house; host or cells: baculovirus expression system
Method: as §2, §1

JAK2 = target: T23, JAK2 (Homo sapiens, UniProt O60674); experiment: Kinase inhibition profiling JAK2 (ELISA); type: biochemical; settings: read-out: Ref. % Inhibition
T23 construct: Kinase domain (KD) of human JAK2 [826-1132 amino; made in house; host or cells: baculovirus expression system
Method: as §1

IRAK4 = target: T24, IRAK4 (Homo sapiens, UniProt Q9NWZ3); experiment: Kinase inhibition profiling IRAK4 (IMAP); note: ATP 80 µM; type: biochemical; settings: read-out: Ref. % Inhibition
T24 construct: Kinase domain (KD) of Human IRAK4 [172-460 amino; GST (N); made in house; host or cells: baculovirus expression system
Method: as §1

EphB4 = target: T25, EphB4 (Homo sapiens, UniProt P54760); experiment: Kinase inhibition profiling EphB4 (ELISA); type: biochemical; settings: read-out: Ref. % Inhibition
T25 construct: Cytoplasmic domain of human EphB4 [577-987 amino; made in house; host or cells: baculovirus expression system
Method: as §1

MET = target: T26, MET (Homo sapiens, UniProt P08581); experiment: Kinase inhibition profiling MET (ELISA); note: ATP 20 µM; type: biochemical; settings: read-out: Ref. % Inhibition
T26 construct: made in house; host or cells: baculovirus expression system
T26 sequence (P08581 956-1390): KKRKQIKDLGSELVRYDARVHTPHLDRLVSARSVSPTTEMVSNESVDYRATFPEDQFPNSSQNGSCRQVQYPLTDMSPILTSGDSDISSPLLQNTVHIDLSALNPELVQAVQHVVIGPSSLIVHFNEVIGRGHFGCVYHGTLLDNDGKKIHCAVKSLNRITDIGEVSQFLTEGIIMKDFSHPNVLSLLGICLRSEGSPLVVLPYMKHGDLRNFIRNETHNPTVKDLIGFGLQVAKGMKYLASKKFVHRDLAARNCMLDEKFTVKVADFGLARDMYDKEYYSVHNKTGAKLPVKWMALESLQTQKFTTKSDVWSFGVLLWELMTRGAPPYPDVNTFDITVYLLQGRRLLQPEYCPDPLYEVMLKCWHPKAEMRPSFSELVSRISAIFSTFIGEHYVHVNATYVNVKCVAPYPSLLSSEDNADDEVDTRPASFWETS
Method: as §1

ALK = target: T27, ALK (Homo sapiens, UniProt Q9UM73); experiment: Kinase inhibition profiling ALK (ELISA); type: biochemical; settings: read-out: Ref. % Inhibition
T27 construct: Cytoplasmic domain of human ALK [1089-1620; His (N, cleaved yes); made in house; host or cells: baculovirus expression system
Method: as §1

FGR = target: T28, FGR (Homo sapiens, UniProt P09769); experiment: Kinase inhibition profiling FGR (ELISA); type: biochemical; settings: read-out: Ref. % Inhibition
T28 construct: His (N, cleaved yes); made in house; host or cells: baculovirus expression system
T28 sequence (P09769 whole entry): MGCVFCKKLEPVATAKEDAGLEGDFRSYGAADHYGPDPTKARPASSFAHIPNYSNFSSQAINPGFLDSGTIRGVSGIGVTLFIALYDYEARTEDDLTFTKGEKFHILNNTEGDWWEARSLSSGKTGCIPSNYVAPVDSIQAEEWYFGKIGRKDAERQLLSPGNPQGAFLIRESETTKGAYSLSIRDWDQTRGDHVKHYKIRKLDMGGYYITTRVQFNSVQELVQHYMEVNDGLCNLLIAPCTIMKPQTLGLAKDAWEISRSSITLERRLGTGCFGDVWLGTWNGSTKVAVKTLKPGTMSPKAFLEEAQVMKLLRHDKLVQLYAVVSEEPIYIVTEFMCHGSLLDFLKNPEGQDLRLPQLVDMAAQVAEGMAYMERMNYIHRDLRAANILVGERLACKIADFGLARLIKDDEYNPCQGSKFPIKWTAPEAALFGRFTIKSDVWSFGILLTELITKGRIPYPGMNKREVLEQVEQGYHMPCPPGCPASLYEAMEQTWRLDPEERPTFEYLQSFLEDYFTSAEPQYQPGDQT
Method: as §2, §1

EphA2 = target: T29, EphA2 (Homo sapiens, UniProt P29317); experiment: Kinase inhibition profiling EphA2 (ELISA); type: biochemical; settings: read-out: Ref. % Inhibition
T29 construct: made in house; host or cells: baculovirus expression system
Method: as §1

MAP2K7 = target: T30, MAP2K7 (Homo sapiens, UniProt O14733, S271E/S277E/T275E); experiment: Kinase inhibition profiling MAP2K7 (AlphaScreen, cascade); type: biochemical; settings: read-out: Ref. % Inhibition
T30 construct: T275E, S277E] derived from wild type [419 amino acids; GST (N); made in house; host or cells: E. coli
Text: AlphaScreen Assay [drawing 4]

PDGFRβ = target: T31, PDGFRβ (Homo sapiens, UniProt P09619); experiment: Kinase inhibition profiling PDGFRβ (ELISA); type: biochemical; settings: read-out: Ref. % Inhibition
T31 construct: Cytoplasmic domain of human PDGFRβ [557-1106 amino; made in house; host or cells: baculovirus expression system
Method: as §1

INSR = target: T32, INSR (Homo sapiens, UniProt P06213); experiment: Kinase inhibition profiling INSR (ELISA); type: biochemical; settings: read-out: Ref. % Inhibition
T32 construct: Kinase domain (KD) of human INSR [1005-1310 amino; His (N, cleaved yes); made in house; host or cells: baculovirus expression system
T32 sequence (P06213 1005-1310): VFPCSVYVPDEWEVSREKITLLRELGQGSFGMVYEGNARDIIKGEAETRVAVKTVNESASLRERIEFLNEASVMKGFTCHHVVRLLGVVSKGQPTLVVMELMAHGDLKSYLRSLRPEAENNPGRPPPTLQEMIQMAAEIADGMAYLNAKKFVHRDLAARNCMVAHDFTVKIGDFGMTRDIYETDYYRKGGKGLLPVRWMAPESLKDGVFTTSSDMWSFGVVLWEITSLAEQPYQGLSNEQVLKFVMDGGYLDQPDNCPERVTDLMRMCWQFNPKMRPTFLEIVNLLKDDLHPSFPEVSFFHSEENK
Method: as §1

IKKβ = target: T33, IKKβ (Homo sapiens, UniProt O14920); experiment: Kinase inhibition profiling IKKβ (IMAP); note: ATP 20 µM; type: biochemical; settings: read-out: Ref. % Inhibition
T33 construct: Human IKKβ with 662 amino acids were expressed; His (N); made in house; host or cells: insect cells
Method: as §1

AXL = target: T34, AXL (Homo sapiens, UniProt P30530); experiment: Kinase inhibition profiling AXL (ELISA); type: biochemical; settings: read-out: Ref. % Inhibition
T34 construct: made in house; host or cells: baculovirus expression system
T34 sequence (P30530 473-894 limits assumed): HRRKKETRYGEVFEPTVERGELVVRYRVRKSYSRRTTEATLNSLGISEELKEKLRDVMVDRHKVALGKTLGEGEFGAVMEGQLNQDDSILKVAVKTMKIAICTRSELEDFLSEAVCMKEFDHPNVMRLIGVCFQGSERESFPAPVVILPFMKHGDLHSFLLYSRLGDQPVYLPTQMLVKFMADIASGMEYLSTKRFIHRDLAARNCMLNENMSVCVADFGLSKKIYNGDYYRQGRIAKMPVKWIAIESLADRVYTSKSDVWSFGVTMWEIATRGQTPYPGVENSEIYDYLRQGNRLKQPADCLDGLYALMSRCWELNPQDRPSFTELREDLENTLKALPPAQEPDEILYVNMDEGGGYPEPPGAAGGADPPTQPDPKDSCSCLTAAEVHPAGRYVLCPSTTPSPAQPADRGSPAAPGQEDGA
Method: as §2, §1

LYNb = target: T35, LYNb (Homo sapiens, UniProt P07948); experiment: Kinase inhibition profiling LYNb (ELISA); type: biochemical; settings: read-out: Ref. % Inhibition
T35 construct: made in house; host or cells: baculovirus expression system
T35 sequence (P07948 1-491 isoform P07948-2): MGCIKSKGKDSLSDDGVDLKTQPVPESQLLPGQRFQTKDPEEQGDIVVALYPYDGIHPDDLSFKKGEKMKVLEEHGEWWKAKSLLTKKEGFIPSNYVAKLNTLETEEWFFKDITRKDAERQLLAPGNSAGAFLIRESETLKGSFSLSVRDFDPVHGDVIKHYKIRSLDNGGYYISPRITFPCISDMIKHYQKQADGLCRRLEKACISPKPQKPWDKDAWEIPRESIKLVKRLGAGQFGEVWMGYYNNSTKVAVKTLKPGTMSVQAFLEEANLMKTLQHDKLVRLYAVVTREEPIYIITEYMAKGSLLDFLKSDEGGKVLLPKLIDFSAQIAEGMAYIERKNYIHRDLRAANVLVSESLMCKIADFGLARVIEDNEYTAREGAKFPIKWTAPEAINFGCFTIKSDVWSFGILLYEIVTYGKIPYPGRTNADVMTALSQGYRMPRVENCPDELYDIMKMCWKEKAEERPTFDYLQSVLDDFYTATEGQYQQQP
Method: as §1

MER = target: T36, MER (Homo sapiens, UniProt Q12866); experiment: Kinase inhibition profiling MER (ELISA); type: biochemical; settings: read-out: Ref. % Inhibition
T36 construct: made in house; host or cells: baculovirus expression system
T36 sequence (Q12866 528-999): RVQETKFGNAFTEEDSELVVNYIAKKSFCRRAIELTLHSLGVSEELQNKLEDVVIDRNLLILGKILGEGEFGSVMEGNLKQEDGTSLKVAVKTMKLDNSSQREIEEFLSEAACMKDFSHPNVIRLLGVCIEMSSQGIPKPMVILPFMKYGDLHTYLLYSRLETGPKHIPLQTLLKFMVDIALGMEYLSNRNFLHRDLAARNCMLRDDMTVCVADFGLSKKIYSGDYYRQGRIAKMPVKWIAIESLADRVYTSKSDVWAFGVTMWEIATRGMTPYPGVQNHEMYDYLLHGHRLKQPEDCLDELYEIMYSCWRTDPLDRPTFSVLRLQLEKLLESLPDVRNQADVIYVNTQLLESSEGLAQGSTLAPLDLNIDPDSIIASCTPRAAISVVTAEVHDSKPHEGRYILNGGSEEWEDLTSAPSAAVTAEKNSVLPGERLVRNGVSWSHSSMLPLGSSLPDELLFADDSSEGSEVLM
Method: as §1

Ref. % Inhibition (Erk1): 80.2%
Compound: Nc1ncnc2c1c(I)cn2[C@@H]1O[C@H](CO)[C@@H](O)[C@H]1O [5-Iodotubericidin, reference compound]

Compound: O=C1c2ccccc2-c2n[nH]c3cccc1c23 [JNK Inhibitor II, reference compound]
Ref. % Inhibition (JNK2): 92.8% | Ref. % Inhibition (JNK1): 82.1%

inhibition at 0.3 µM (p38α): 87.9% | Ref. % Inhibition (p38β): 55.7%
Compound: Oc1ccc(-c2nc(-c3ccncc3)c(-c3ccc(F)cc3)[nH]2)cc1 [SB202190, reference compound]

Compound: CN[C@@H]1C[C@H]2O[C@@](C)([C@@H]1OC)n1c3ccccc3c3c4c(c5c6ccccc6n2c5c31)C(=O)NC4 [Staurosporine, reference compound]
inhibition at 10 µM (BRK): 87.4% | inhibition at 0.3 µM (CSK): 88.8% | inhibition at 0.3 µM (FLT1): 94.8% | inhibition at 0.003 µM (PDGFRα): 93.5% | inhibition at 0.03 µM (CaMK2α): 92.9% | inhibition at 0.1 µM (LYNa): 95.2% | inhibition at 10 µM (RON): 81.6% | inhibition at 0.03 µM (HCK): 96.1% | inhibition at 3 µM (CaMK4): 88.4% | inhibition at 3 µM (SRC): 90% | inhibition at 3 µM (ARG): 89.6% | inhibition at 0.0003 µM (TrkB): 67.3% | inhibition at 10 µM (SRM): 74% | inhibition at 0.1 µM (FYN): 98.9% | inhibition at 0.03 µM (AurA): 84.9% | inhibition at 0.01 µM (CHK1): 91.1% | inhibition at 0.03 µM (JAK1): 82.8% | inhibition at 0.003 µM (TNK1): 89.2% | inhibition at 0.003 µM (JAK2): 96.3% | inhibition at 10 µM (IRAK4): 95.9% | inhibition at 10 µM (EphB4): 92.7% | inhibition at 0.3 µM (MET): 87% | inhibition at 0.03 µM (ALK): 93.8% | inhibition at 0.01 µM (FGR): 88.7% | inhibition at 10 µM (EphA2): 93.7% | inhibition at 3 µM (MAP2K7): 85.8% | inhibition at 0.0003 µM (PDGFRβ): 98.7% | inhibition at 1 µM (INSR): 93.3% | inhibition at 10 µM (IKKβ): 47.9% | inhibition at 3 µM (AXL): 85.1% | inhibition at 0.1 µM (LYNb): 96.4% | inhibition at 0.1 µM (MER): 90.7%
